Experimental data as given in US5952321A, “Substituted azetidinones as anti-inflammatory and antidegenerative agents” (Merck & Co., Inc., priority 1996, dated 1999).
Structures can show the parent of a compound that is named as a salt. Where two headings read alike, the source gives them in different places.

Molecular target: T1, Human Polymorphonuclear Leukocyte Elastase (Homo sapiens, UniProt P08246)
T1 sequence (P08246 30-267): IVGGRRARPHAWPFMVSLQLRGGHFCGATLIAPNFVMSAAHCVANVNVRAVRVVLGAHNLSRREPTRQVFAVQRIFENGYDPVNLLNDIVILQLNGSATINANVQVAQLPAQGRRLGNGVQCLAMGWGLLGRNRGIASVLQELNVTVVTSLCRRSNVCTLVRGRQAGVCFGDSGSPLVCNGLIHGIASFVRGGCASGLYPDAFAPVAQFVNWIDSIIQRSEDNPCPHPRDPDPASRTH
Assay: Inhibition of human polymorphonuclear leukocyte elastase via hydrolysis of Boc-AAPAN or Boc-AAPVN
Type: biochemical
Details: second order rate constant for inactivation of the enzyme, read-out: Kobs /[I]
Experimental: Enzyme Assays for the Inhibition of Human Polymorphonuclear Leukocyte Elastase Via Hydrolysis of N-t-Boc-alanyl-alanyl-prolylalanine-p-nitroanilide (Boc-AAPAN) or […] (Boc-AAPVN) Reagent:
0.05M TES (N-tris[hydroxymethyl]methyl-2-amino-ethanesulfonic acid) Buffer, pH 7.5.
0.2 mM Boc-AAPAN or Boc-AAPVN.
To prepare substrate, the solid was first dissolved in 10.0 ml DMSO. Buffer at pH 7.5 was then added to a final volume of 100 ml.
Crude extract of human polymorphonuclear leukocytes (PMN) containing elastase activity.
Inhibitors (azetidinones) to be tested dissolved in DMSO just before use.
To 1.0 ml of 0.2 mM Boc-AAPAN in a cuvette, 0.01-0.1 ml of DMSO with or without inhibitor was added. After mixing, a measurement was taken at 410 mμ to detect any spontaneous hydrolysis due to presence of test compound. 0.05 Milliliters of PMN extract was then added and the ΔOD/min at 410 mμ was measured and recorded. Beckman model 35 spectrophotometer was used.
Results in Tables I to III were reported as ID50, effective dosage in micrograms per milliliter (μg/ml) for 50% inhibition of the enzyme activity 2 minutes after zero time.
Results were also expressed as Ki, the micromolar concentration of the inhibitor (μM) giving 50% of the control enzyme activity; or as ^k obs/I which is the second order rate constant in per mole per second for inactivation of the enzyme.
The elastase activity in the crude PMN extract may vary from one preparation to another. A control of each new batch is run, and the volume added in the assay procedure is adjusted according to activity.

| Structure (SMILES) | kinact/KI (pH 7.5, Table I) | other results |
| --- | --- | --- |
| CCC[C@@H](NC(=O)N1C(=O)C(CC)(CC)[C@@H]1Oc1ccc(CN(CC)CCOC)cc1)c1ccc(OC)cc1 | – | kinact/KI (pH 7.5, Table III): 1e+06 M⁻¹ s⁻¹ |
| CCC[C@@H](NC(=O)N1C(=O)C(CC)(CC)[C@@H]1Oc1ccc(CN(C)CCOC)cc1)c1ccc(OCC)cc1 | – | kinact/KI (pH 7.5, Table III): 1.3e+06 M⁻¹ s⁻¹ |
| CCC[C@@H](NC(=O)N1C(=O)C(CC)(CC)[C@@H]1Oc1ccc(CN(CC)CCOC)c(Cl)c1)c1ccc(C)cc1 | – | kinact/KI (pH 7.5, Table III): 550000 M⁻¹ s⁻¹ |
| CCC[C@@H](NC(=O)N1C(=O)C(CC)(CC)[C@@H]1Oc1ccc(CN2CCN(C(C)=O)CC2)cc1)c1ccc(C)cc1 [R4+R5=--CH2 CH2 N(Ac)CH2 CH2 --; R6=H] | 950000 M⁻¹ s⁻¹ | – |
| CCC[C@@H](NC(=O)N1C(=O)C(CC)(CC)[C@@H]1Oc1ccc(CN(CC)CCOC)c(C)c1)c1ccc(C)cc1 | – | kinact/KI (pH 7.5, Table III): 450000 M⁻¹ s⁻¹ |
| CCC[C@@H](NC(=O)N1C(=O)C(CC)(CC)[C@@H]1Oc1ccc(CN2CCSCC2)cc1)c1ccc(C)cc1 [R4+R5=--CH2 CH2 SCH2 CH2 --; R6=H] | 915000 M⁻¹ s⁻¹ | – |
| CCC[C@@H](NC(=O)N1C(=O)C(CC)(CC)[C@@H]1Oc1ccc(CCN2CCOCC2)cc1)c1ccc(C)cc1 [R4+R5=--CH2 CH2 OCH2 CH2 --; n=2, (4S)-3,3-Diethyl-1-[(R)-α-n-propyl-(4-methyl)benzylaminocarbonyl]-4-[(4-(2-(4-morpholino))ethyl)phenoxy]azetidin-2-one] | – | kinact/KI (pH 7.5, Table II): 600000 M⁻¹ s⁻¹ |
| CCC[C@@H](NC(=O)N1C(=O)C(CC)(CC)[C@@H]1Oc1ccc(CCN(C)Cc2ccccc2)cc1)c1ccc(C)cc1 [R4=Me; R5=Bn; n=2, (4S)-3,3-Diethyl-1-[(R)-α-n-propyl-(4-methyl)benzylaminocarbonyl]-4-[(4-(2-benzylmethylamino)ethyl)phenoxy]azetidin-2-one] | – | kinact/KI (pH 7.5, Table II): 1.32e+06 M⁻¹ s⁻¹ |
| CCC[C@@H](NC(=O)N1C(=O)C(CC)(CC)[C@@H]1Oc1ccc(CN(C)C(C)COC)c(Cl)c1)c1ccc(C)cc1 (stereo partly shown) | – | kinact/KI (pH 7.5, Table III): 650000 M⁻¹ s⁻¹ |
| CCC[C@@H](NC(=O)N1C(=O)C(CC)(CC)[C@@H]1Oc1ccc(CN(CCOC)CCOC)c(Cl)c1)c1ccc(C)cc1 | – | kinact/KI (pH 7.5, Table III): 1e+06 M⁻¹ s⁻¹ |
| CCC[C@@H](NC(=O)N1C(=O)C(CC)(CC)[C@@H]1Oc1ccc(CCCCN(C)C)cc1)c1ccc(C)cc1 [R4=Me; R5=Me; n=4] | – | kinact/KI (pH 7.5, Table II): 525000 M⁻¹ s⁻¹ |
| CCC[C@@H](NC(=O)N1C(=O)C(CC)(CC)[C@@H]1Oc1ccc(CN2CCC[C@H]2COC)cc1)c1ccc(C)cc1 | 1.55e+06 M⁻¹ s⁻¹ | – |
| CCC[C@@H](NC(=O)N1C(=O)C(CC)(CC)[C@@H]1Oc1ccc(CN(C)C(C)COC)c(OC)c1)c1ccc(C)cc1 (stereo partly shown) | – | kinact/KI (pH 7.5, Table III): 1.65e+06 M⁻¹ s⁻¹ |
| CCC[C@@H](NC(=O)N1C(=O)C(CC)(CC)[C@@H]1Oc1ccc(CN(CC)CCOC)cc1)c1ccc2occc2c1 | – | kinact/KI (pH 7.5, Table III): 1.1e+06 M⁻¹ s⁻¹ |
| CCC[C@@H](NC(=O)N1C(=O)C(CC)(CC)[C@@H]1Oc1ccc(CN(CC)C(C)COC)cc1)c1ccc2occc2c1 (stereo partly shown) | – | kinact/KI (pH 7.5, Table III): 1.05e+06 M⁻¹ s⁻¹ |
| CCC[C@@H](NC(=O)N1C(=O)C(CC)(CC)[C@@H]1Oc1ccc(CN2CCN(C(=O)OC)CC2)cc1)c1ccc(C)cc1 | 730000 M⁻¹ s⁻¹ | – |
| CCC[C@@H](NC(=O)N1C(=O)C(CC)(CC)[C@@H]1Oc1ccc(CNC(=O)NCc2ccccc2)cc1)c1ccc(C)cc1 [R4=H; R5=CONH Bn; R6=H, (4S)-3,3-Diethyl-1-[(R)-α-(n-propyl)-4-(methyl)benzylaminocarbonyl]-4-[(4-((N-benzyl)aminocarbonyl)aminomethyl)phenoxy]azetidin-2-one] | 1.6e+06 M⁻¹ s⁻¹ | – |
| CCC[C@@H](NC(=O)N1C(=O)C(CC)(CC)[C@@H]1Oc1ccc(CN(CC)C(C)COC)cc1)c1ccc2c(c1)OCO2 (stereo partly shown) | – | kinact/KI (pH 7.5, Table III): 1.6e+06 M⁻¹ s⁻¹ |
| CCC[C@@H](NC(=O)N1C(=O)C(CC)(CC)[C@@H]1Oc1ccc(CCN(C)CCN(C)C)cc1)c1ccc(C)cc1 [R4=Me; R5=CH2 CH2 NMe2; n=2, (4S)-3,3-Diethyl-1-[(R)-α-n-propyl-(4-methyl)benzylaminocarbonyl]-4-[(4-(2-((2-dimethylamino)ethyl)methylamino)ethyl)phenoxy]azetidin-2-one] | – | kinact/KI (pH 7.5, Table II): 1.2e+06 M⁻¹ s⁻¹ |
| CCC[C@@H](NC(=O)N1C(=O)C(CC)(CC)[C@@H]1Oc1ccc(CN2CCN(C(=O)N(CC)CC)CC2)cc1)c1ccc(C)cc1 | 1.4e+06 M⁻¹ s⁻¹ | – |
| CCC[C@@H](NC(=O)N1C(=O)C(CC)(CC)[C@@H]1Oc1ccc(CN2CCN(C(=O)C(C)C)CC2)cc1)c1ccc(C)cc1 | 1.6e+06 M⁻¹ s⁻¹ | – |

The next lines start with results.

| kinact/KI (pH 7.5, Table I) | Structure (SMILES) | other results |
| --- | --- | --- |
| 1.2e+06 M⁻¹ s⁻¹ | CCCNC(=O)NCc1ccc(O[C@@H]2N(C(=O)N[C@H](CCC)c3ccc(C)cc3)C(=O)C2(CC)CC)cc1 [R4=H; R5=CONHnPr; R6=H, (4S)-3,3-Diethyl-1-[(R)-α-(n-propyl)-4-(methyl)benzylaminocarbonyl]-4-[(4-((N-propyl)aminocarbonyl)aminomethyl)phenoxy]azetidin-2-one] | – |
| 725000 M⁻¹ s⁻¹ | CCC[C@@H](NC(=O)N1C(=O)C(CC)(CC)[C@@H]1Oc1ccc(CN2CCC[C@@H]2CO)cc1)c1ccc(C)cc1 | – |
| 960000 M⁻¹ s⁻¹ | CCC[C@@H](NC(=O)N1C(=O)C(CC)(CC)[C@@H]1Oc1ccc(C(C)N2CCC[C@H]2COC)cc1)c1ccc(C)cc1 (single isomer, unassigned) [R4+R5=--CH2 CH2 CH2 CH(S--CH2 OMe)--; R6=Me (isomer A)] | – |
| 870000 M⁻¹ s⁻¹ | CCC[C@@H](NC(=O)N1C(=O)C(CC)(CC)[C@@H]1Oc1ccc(CN(C)CCC(=O)N(C)C)cc1)c1ccc(C)cc1 [R4=Me; R5=CH2 CH2 CONMe2; R6=H] | – |
| 565000 M⁻¹ s⁻¹ | CCC[C@@H](NC(=O)N1C(=O)C(CC)(CC)[C@@H]1Oc1ccc(CN(CC)CCOC)cc1)c1ccc(C)cc1 [R4=Et; R5=CH2 CH2 OMe; R6=H, (4S)-3,3-Diethyl-1-[(R)-α-n-propyl-(4-methyl)benzyl-aminocarbonyl]-4-[(4-(2-methoxyethyl)ethylamino-methyl)phenoxy]azetidin-2-one] | – |
| 910000 M⁻¹ s⁻¹ | CCC[C@@H](NC(=O)N1C(=O)C(CC)(CC)[C@@H]1Oc1ccc(CN(C)CC(=O)N(CCC)CCC)cc1)c1ccc(C)cc1 [R4=Me; R5=CH2 CON(n-Pr)2; R6=H] | – |
| 1.5e+06 M⁻¹ s⁻¹ | CCC[C@@H](NC(=O)N1C(=O)C(CC)(CC)[C@@H]1Oc1ccc(CN(C)CCS(=O)(=O)CC)cc1)c1ccc(C)cc1 [R4=Me; R5=CH2 CH2 SO2 Et; R6=H, (4S)-3,3-Diethyl-1-[(R)-α-n-propyl-(4-methyl)benzylaminocarbonyl]-4-[(4-((2-thioethyl)ethyl)methylaminomethyl)phenoxy]azetidin-2-one. S-dioxide.] | – |
| 1.4e+06 M⁻¹ s⁻¹ | CCC[C@@H](NC(=O)N1C(=O)C(CC)(CC)[C@@H]1Oc1ccc(CN(CC)CCOC(=O)N(C)C)cc1)c1ccc(C)cc1 [R4=Et; R5=CH2 CH2 OCONMe2; R6=H] | – |
| 770000 M⁻¹ s⁻¹ | CCC[C@@H](NC(=O)N1C(=O)C(CC)(CC)[C@@H]1Oc1ccc(C(C)N(C)CCO)cc1)c1ccc(C)cc1 (stereo partly shown) [R4=Me; R5=CH2 CH2 OH; R6=Me] | – |
| 440000 M⁻¹ s⁻¹ | CCC[C@@H](NC(=O)N1C(=O)C(CC)(CC)[C@@H]1Oc1ccc(CN(C)CCOC)cc1)c1ccc(C)cc1 [R4=Me; R5=CH2 CH2 OMe; R6=H, (4S)-3,3-Diethyl-1-[(R)-α-n-propyl-(4-methyl)benzylaminocarbonyl]-4-[(4-(2-methoxyethyl)methylaminomethyl)phenoxyl]azetidin-2-one] | – |
| 765000 M⁻¹ s⁻¹ | CCC[C@@H](NC(=O)N1C(=O)C(CC)(CC)[C@@H]1Oc1ccc(CN2CCC(OC)C2)cc1)c1ccc(C)cc1 (stereo partly shown) [R4+R5=--CH2 CH2 CH(OMe)CH2 --; R6=H] | – |
| 1.23e+06 M⁻¹ s⁻¹ | CCC[C@@H](NC(=O)N1C(=O)C(CC)(CC)[C@@H]1Oc1ccc(CN(C)CCOC(=O)N(CC)CC)cc1)c1ccc(C)cc1 [R4=Me; R5=CH2 CH2 OCONEt2; R6=H] | – |
| 1e+06 M⁻¹ s⁻¹ | CCC[C@@H](NC(=O)N1C(=O)C(CC)(CC)[C@@H]1Oc1ccc(CN(C)CC2CCCO2)cc1)c1ccc(C)cc1 (stereo partly shown) [R4=Me; R5=CH2 CH(CH2 CH2 CH2 O); R6=H] | – |
| 1.85e+06 M⁻¹ s⁻¹ | CCC[C@@H](NC(=O)N1C(=O)C(CC)(CC)[C@@H]1Oc1ccc(CN(C)CCOC(=O)NC(C)C)cc1)c1ccc(C)cc1 [R4=Me; R5=CH2 CH2 OCONH(i-Pr); R6=H] | – |
| 440000 M⁻¹ s⁻¹ | CCC[C@@H](NC(=O)N1C(=O)C(CC)(CC)[C@@H]1Oc1ccc(CN(C)CCC(=O)O)cc1)c1ccc(C)cc1 [R4=Me; R5=CH2 CH2 CO2 H--TFA; R6=H] | – |
| 650000 M⁻¹ s⁻¹ | CCC[C@@H](NC(=O)N1C(=O)C(CC)(CC)[C@@H]1Oc1ccc(CN(C)CCN(C)C(C)=O)cc1)c1ccc(C)cc1 [R4=Me; R5=CH2 CH2 N(Me)Ac; R6=H] | – |
| 950000 M⁻¹ s⁻¹ | CCC[C@@H](NC(=O)N1C(=O)C(CC)(CC)[C@@H]1Oc1ccc(CN2CCC[C@H]2CO)cc1)c1ccc(C)cc1 [R4+R5=--CH2 CH2 CH2 CH(S--CH2 OH); R6=H] | – |
| 1.9e+06 M⁻¹ s⁻¹ | CCC[C@@H](NC(=O)N1C(=O)C(CC)(CC)[C@@H]1Oc1ccc(CN(C)CCOCCOC)cc1)c1ccc(C)cc1 [R4=Me; R5=CH2 CH2 OCH2 CH2 OMe; R6=H] | – |
| 400000 M⁻¹ s⁻¹ | CCC[C@@H](NC(=O)N1C(=O)C(CC)(CC)[C@@H]1Oc1ccc(CN(C)Cc2ccccc2)cc1)c1ccc(C)cc1 [R4=Me; R5=Bn; R6=H] | – |
